Tests used:
[1] = Selectivity index, ratio of IC50 for inhibition of CDK1 (unknown origin) to IC50 for inhibition of CDK9 (unknown origin)
[2] = Selectivity index, ratio of IC50 for inhibition of CDK2 (unknown origin) to IC50 for inhibition of CDK9 (unknown origin)
[3] = system: MV4-11; assay: Antiproliferative activity against human MV4-11 cells assessed as cell viability; type: functional, cell-based
[4] = Volume of distribution in CD-1 mouse at 2 mg/kg, iv; type: ADME, organism-based; conditions: CD-1, mouse, in vivo, read-out: Vd
[5] = Clearance in CD-1 mouse at 2 mg/kg, iv; type: ADME, organism-based; conditions: in vivo
[6] = Half life in CD-1 mouse at 2 mg/kg, iv; type: ADME, organism-based; conditions: CD-1, mouse, in vivo
[7] = AUC (0 to 24 hrs) in CD-1 mouse at 2 mg/kg, iv; type: ADME, organism-based; conditions: CD-1, mouse, in vivo

Ratio IC50 [1] | Ratio IC50 [2] | IC50 [3] | Vd [4] | clearance [5] | half-life [6] | AUC(0-t) [7] | Compound
35.9 | 11.2 | 35.7 nM |  |  |  |  | CN1CCC(c2cc3c(-c4cnn(CC5CC5)c4)c(Cl)cnc3[nH]2)CC1
11.5 | 14.5 | 14.7 nM |  |  |  |  | Clc1cnc2[nH]c(C3CCNCC3)cc2c1-c1cnn(CC2CC2)c1
 | 35.5 | 464 nM |  |  |  |  | Clc1cnc2[nH]c(C3CCNCC3)nc2c1-c1cnn(CC2CC2)c1

The next lines start with the compound.

Compound | Ratio IC50 [1] | Ratio IC50 [2] | IC50 [3] | Vd [4] | clearance [5] | half-life [6] | AUC(0-t) [7]
c1cc(-c2cnn(CC3CC3)c2)c2cc(C3CCNCC3)[nH]c2n1 | 48.8 | 51.8 | 252 nM |  |  |  | 
CC(=O)N[C@@H]1CCC[C@H](C(=O)Nc2cc(-c3cnn4c3CC(C)(C)C4)c(Cl)cn2)C1 [ZEMIRCICLIB] |  |  |  | 0.52 L/kg | 78.1 mL/min/kg | 6 min | 0.992 µM·h

Reference: ChEMBL document CHEMBL6092142, “Discovery and preclinical profile of YK-2168, a differentiated selective CDK9 inhibitor in clinical development” (Bioorg Med Chem Lett, 2024)
